The results in this text go back to ChEMBL document CHEMBL1139741, “Synthesis of 1,2,4-trioxepanes via application of thiol-olefin co-oxygenation methodology” (Bioorg Med Chem Lett, 2006).

In the assay the test system is Plasmodium falciparum. In words: Antimalarial activity against Plasmodium falciparum 3D7. The assay is classed as functional, organism-based.
In turn, `CC1(CS(=O)(=O)c2ccc(Cl)cc2)COC2(CCCCC2)OO1` (stereo not drawn) yielded an IC50 of 137 nM.
Next, `CC1(CS(=O)(=O)c2ccc(Cl)cc2)CCOC(=C2C3CC4CC(C3)CC2C4)OO1` (stereo not drawn): more than 1000 nM; `CC1(CS(=O)(=O)c2ccc(Cl)cc2)COC(=C2C3CC4CC(C3)CC2C4)OO1` (stereo not drawn): 189 nM.
Regarding `CC1(CS(=O)(=O)c2ccc(Cl)cc2)CCOC2(CCCC2)OO1` (stereo not drawn), the IC50 was more than 1000 nM.
Next, `CC1(CS(=O)(=O)c2ccc(Cl)cc2)COC2(CCCC2)OO1` (stereo not drawn): 99.8 nM; `COC(=O)/C=C/C1(C)CCOC(=C2C3CC4CC(C3)CC2C4)OO1` (stereo not drawn): more than 1000 nM; `CC1(CS(=O)(=O)c2ccc(Cl)cc2)CCOC2(CCCCC2)OO1` (stereo not drawn): more than 1000 nM.
Next, `CC1(CSc2ccc(Cl)cc2)COC2(CCCC2)OO1` (stereo not drawn): 110 nM.

One may read the IC50 as the concentration needed to halve the response being measured. Read a high IC50 as lower potency.
